{"source": "ChEMBL document CHEMBL4673236", "about": "“Synthesis and biological effect of lysosome-targeting fluorescent anion transporters with enhanced anionophoric activity” (Bioorg Med Chem Lett, 2020)", "key": {"[1]": {"test": "Aniono-phoric activity in egg-yolk L-aphosphatidylcholine vesicle assessed as increase in efflux of chloride ion by pH discharge experiment"}, "[2]": {"test": "Induction of lysosome alkalization in human HeLa cells incubated for 4 hrs by acridine orange staining based confocal microscopic analysis", "assay_type": "subcellular", "settings": "dose 1.5-5 µM"}, "[3]": {"test": "Induction of lysosome alkalization in human HeLa cells assessed as pixel intensity ratio of red fluorescence to green fluorescence at 5 uM incubated for 4 hrs by acridine orange staining based confocal microscopic analysis relative to control", "assay_type": "subcellular"}, "[4]": {"test": "Induction of lysosome alkalization in human HeLa cells assessed as increase in lysosomal pH incubated for 4 hrs by LysoSensor Green […] staining based confocal microscopic analysis", "assay_type": "subcellular", "settings": "dose 1.5-5 µM"}, "HeLa": {"system": "HeLa", "test": "Induction of lysosomal alkalization in human HeLa cells assessed as reduction in Cathepsin B activity at 5 uM using MR-(RR2) as substrate preincubated for 5 hrs followed by substrate addition and measured after 1 hr by confocal microscopic analysis", "assay_type": "functional, cell-based", "settings": "time 6.0 hrs"}, "[5]": {"test": "Aniono-phoric activity in egg-yolk L-aphosphatidylcholine vesicle assessed as increase in efflux of chloride ion at 0.5 mol% by electrode technique"}, "[6]": {"test": "Drug localization in lysosome of human HeLa cells at 20 uM incubated for 6 hrs by confocal microscopic analysis", "assay_type": "ADME, subcellular"}}, "note": "The source made the active and inactive calls. No cut-off for these calls is given here."}
{"smiles": "Cc1cc(=O)oc2cc(Nc3c(Nc4ccc(N5CCOCC5)cc4)c(=O)c3=O)ccc12", "values": [{"measurement": "EC50", "setting": "[1]", "result": "Nd(Insoluble)"}, {"measurement": "Activity", "setting": "[2]", "result": "Dose-dependent effect"}, {"measurement": "Ratio", "setting": "[3]", "result": 0.69}, {"measurement": "Activity", "setting": "[4]", "result": "Dose-dependent effect"}, {"measurement": "Activity", "setting": "HeLa", "result": "Active"}, {"measurement": "Activity", "setting": "[5]", "result": "inactive"}]}
{"smiles": "Cc1cc(=O)oc2cc(Nc3c(Nc4ccccc4)c(=O)c3=O)ccc12", "values": [{"measurement": "EC50", "setting": "[1]", "result": "Nd(Insoluble)"}, {"measurement": "Drug uptake", "setting": "[6]", "result": "Not Active"}, {"measurement": "Activity", "setting": "[5]", "result": "inactive"}]}
{"smiles": "O=c1cc(CN2CCOCC2)c2ccc(Nc3c(Nc4ccc(C(F)(F)F)cc4)c(=O)c3=O)cc2o1", "values": [{"measurement": "EC50", "setting": "[1]", "result": 0.11, "unit": "mol%"}, {"measurement": "Drug uptake", "setting": "[6]", "result": "Active"}, {"measurement": "Activity", "setting": "[2]", "result": "Dose-dependent effect"}, {"measurement": "Ratio", "setting": "[3]", "result": 0.52}, {"measurement": "Activity", "setting": "[4]", "result": "Dose-dependent effect"}, {"measurement": "Activity", "setting": "HeLa", "result": "Active"}, {"measurement": "Activity", "setting": "[5]", "result": "inactive"}]}
{"smiles": "O=c1cc(CN2CCOCC2)c2ccc(Nc3c(Nc4cc(C(F)(F)F)cc(C(F)(F)F)c4)c(=O)c3=O)cc2o1", "values": [{"measurement": "EC50", "setting": "[1]", "result": 9.09, "unit": "mol%"}, {"measurement": "Drug uptake", "setting": "[6]", "result": "Active"}, {"measurement": "Activity", "setting": "[2]", "result": "Dose-dependent effect"}, {"measurement": "Ratio", "setting": "[3]", "result": 0.08}, {"measurement": "Activity", "setting": "[4]", "result": "Dose-dependent effect"}, {"measurement": "Activity", "setting": "HeLa", "result": "Active"}, {"measurement": "Activity", "setting": "[5]", "result": "Active"}]}
